Measured values from patent US20240197666A1, “DITERPENOID COMPOUNDS THAT ACT ON PROTEIN KINASE C (PKC)” (K-Gen Therapeutics, Inc., priority 2021, published 2024).
Where two headings read alike, the source gives them in different places.

What was measured:
A549 cell line = experiment: Proliferation of A549 (CellTiter Glo); format: cell-based; details: read-out: IC50 μM (A549 Cell Line)
Method: The diterpenoid compounds were tested in A549, a non-small cell lung cancer cell line harboring a K-Ras activating mutation. Briefly, A549 cells at a density of 1,000 cells/well were seeded in 96-well plates and incubated at 37° C. for 24 hours. A series of different concentrations of compound stocks (500×) were prepared by 3-fold serial dilution in DMSO. These compounds were further diluted in culture media and then added to cells so that the final DMSO concentration was not exceeding 0.25%. After 96 hours of incubation, 50 μL of CellTiter Glo reagent (Promega) was added to each well and luminescence was measured after 10 minutes using EnVision (PerkinElmer). Luminescence from cells treated with DMSO alone was set as Max and % of inhibition was calculated as follows: Inhibition %=(Max-Sample value)/Max×100. Data was analyzed using XL-fit software (ID Business Solutions Ltd.) and IC50, relative IC50, and % of top inhibition was calculated. Some of the compounds in this disclosure were very potent in blocking proliferation of A549 lung cancer cells at low nM range. In addition, potency of inhibiting A549 proliferation correlated well with its binding affinity to PKCs for this series of compounds. In other words, higher affinity binders had stronger inhibitory effects on A549 proliferation. This further support the notion that activation, rather than inhibition, of certain PKC isoforms is required to block proliferation of cancer cells, some of which may harbor K-Ras mutations. This is in sharp contrast to previous literature and common belief that inhibition of PKC is necessary to block cancer cell growth (Kang, 2014, New Journal of Science, 2014:1-36). Data presented here is in agreement with recent findings that many loss-of-function but not gain-of-function mutations of PKC isoforms have been identified in many human cancers (Antal et al., 2015, Cell, 160:489-502).

[1] = tested on: NFκB-driven transcription in HeLa-NFκB luciferase reporter cell line; experiment: NFκB luciferase reporter assay; details: PKC inhibitor added at the same time as the PKC activator compounds
human PBMC cells = experiment: Cytokine/chemokine gene expression in human PBMC (TaqMan); format: cell-based; details: 4 h, 1 μM;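 as to Gene Relative Expression CCL2: 2^-ΔΔCt fold change vs DMSO control normalized to 18S and GAPDH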;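 as to Gene Relative Expression GM-CSF: 2^-ΔΔCt fold change vs DMSO control normalized to 18S and GAPDH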;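 as to Gene Relative Expression IFN-α: 2^-ΔΔCt fold change vs DMSO control normalized to 18S and GAPDH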;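 as to Gene Relative Expression IFNγ: 2^-ΔΔCt fold change vs DMSO control normalized to 18S and GAPDH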
Method: Each treatment condition was performed in duplicates.

[2] = Homo sapiens, A549, 96 hours, CellTiter Glo

CSCC[C@H](N)C(=O)O[C@@]12C[C@@H](C)[C@@]3(O)[C@@H](C=C(CO)C[C@]4(O)C(=O)C(C)=C[C@@H]34)[C@@H]1C2(C)C
IC50 (A549 cell line; Homo sapiens, A549, 96 h): 5 to 10 µM

CC1=C[C@H]2[C@@]3(O)[C@H](C)C[C@]4(OC(=O)[C@@H](N)CCCCCCc5ccccc5)[C@H]([C@@H]3C=C(COC(=O)[C@@H](N)C(C)C)C[C@]2(O)C1=O)C4(C)C
IC50 (A549 cell line; [2]): 0.01 to 0.03 µM

CCCCCCCCCCCCCCCCCCC(CC(=O)O[C@@]12C[C@@H](C)[C@@]3(O)[C@@H](C=C(CO)C[C@]4(O)C(=O)C(C)=C[C@@H]34)[C@@H]1C2(C)C)C(=O)O (some centres unmarked)
IC50 (A549 cell line; Homo sapiens, A549, 96 h): 5 to 10 µM

CC1=C[C@H]2[C@@]3(O)[C@H](C)C[C@]4(OC(=O)C(Cc5ccccc5)C(=O)O)[C@H]([C@@H]3C=C(CO)C[C@]2(O)C1=O)C4(C)C (some centres unmarked)
IC50 (A549 cell line; Homo sapiens, A549, 96 h): 1 to 2 µM

CC1=C[C@H]2[C@@]3(O)[C@H](C)C[C@]4(OC(=O)[C@H](O)Cc5ccccc5)[C@H]([C@@H]3C=C(CO)C[C@]2(O)C1=O)C4(C)C
IC50 (A549 cell line; Homo sapiens, A549, 96 h): 2 to 5 µM

CC1=C[C@H]2[C@@]3(O)[C@H](C)C[C@]4(OC(=O)C[C@@H](N)c5ccccc5)[C@H]([C@@H]3C=C(CO)C[C@]2(O)C1=O)C4(C)C
IC50 (A549 cell line; Homo sapiens, A549, 96 h): 2 to 5 µM

CC1=C[C@H]2[C@@]3(O)[C@H](C)C[C@]4(OC(=O)[C@H](CC5CCCCC5)N(C)C)[C@H]([C@@H]3C=C(CO)C[C@]2(O)C1=O)C4(C)C
IC50 (A549 cell line; Homo sapiens, A549, 96 h): 0.6 to 1 µM

CC1=C[C@H]2[C@@]3(O)[C@H](C)C[C@]4(OC(=O)[C@H](N)C56CC(F)(C5)C6)[C@H]([C@@H]3C=C(CO)C[C@]2(O)C1=O)C4(C)C
IC50 (A549 cell line; 96 hours, CellTiter Glo): 10 to 30 µM

CC1=C[C@H]2[C@@]3(O)[C@H](C)C[C@]4(OC(=O)[C@@H](N)C56CC(F)(C5)C6)[C@H]([C@@H]3C=C(CO)C[C@]2(O)C1=O)C4(C)C
IC50 (A549 cell line; 96 hours, CellTiter Glo): 10 to 30 µM

CC1=C[C@H]2[C@@]3(O)[C@H](C)C[C@]4(OC(=O)[C@@H](N)C56CC(C(F)(F)F)(C5)C6)[C@H]([C@@H]3C=C(CO)C[C@]2(O)C1=O)C4(C)C
IC50 (A549 cell line; [2]): 0.06 to 0.1 µM

CC1=C[C@H]2[C@@]3(O)[C@H](C)C[C@]4(O)[C@H]([C@@H]3C=C(CO)C[C@]2(O)C1=O)C4(C)C
IC50 (A549 cell line; Homo sapiens, A549, 96 h): > 30 µM

Cn1c2ccccc2c2c3c(c4c5ccccc5n(CCC#N)c4c21)CNC3=O [Compound G66976, G66976, reference compound]
block of NFκB activation induced by PKC activator compounds [1]: unable to block

COc1ccc2c(c1)c(C1=C(c3c[nH]c4ccccc34)C(=O)NC1=O)cn2CCCN(C)C [Gö6983, reference compound]
block of NFκB activation induced by PKC activator compounds [1]: completely block

CCOCc1nc2c(N)nc3ccccc3c2n1CC(C)(C)O [Resiquimod, reference compound]
Gene Relative Expression CCL2 (human PBMC cells): 3.73
Gene Relative Expression GM-CSF (human PBMC cells): 8.79
Gene Relative Expression IFN-α (human PBMC cells): 1.47
Gene Relative Expression IFNγ (human PBMC cells): 1.28
Gene Relative Expression IL-1β (human PBMC cells): 101.63
Gene Relative Expression IL-2 (human PBMC cells): 1.21
Gene Relative Expression IL-6 (human PBMC cells): 487.14
Gene Relative Expression IL-8 (human PBMC cells): 9.87
Gene Relative Expression IL-10 (human PBMC cells): 5.65
Gene Relative Expression IL-12p40 (human PBMC cells): 786.39
Gene Relative Expression IL-12p70 (human PBMC cells): 2.48
Gene Relative Expression IL-13 (human PBMC cells): 3.52
Gene Relative Expression IL-18 (human PBMC cells): 1.33
Gene Relative Expression ISG15 (human PBMC cells): 14.75
Gene Relative Expression MIP1a (CCL3) (human PBMC cells): 47.71
Gene Relative Expression MX1 (human PBMC cells): 17.00
Gene Relative Expression OAS1 (human PBMC cells): 12.66
Gene Relative Expression TNF-α (human PBMC cells): 7.38

CN1CCN(c2nc(C3=C(c4c[nH]c5ccccc45)C(=O)NC3=O)c3ccccc3n2)CC1 [Sotrastaurin, reference compound]
block of NFκB activation induced by PKC activator compounds [1]: completely block
